{"source": "patent US8247422B2", "about": "“Use of condensed pyrimidine derivatives for the treatment of rheumatoid arthritis” (priority 2007, dated 2012)", "key": {"[1]": {"tested_on": "adjuvant-induced rheumatoid arthritis in rats", "experiment": "Adjuvant-induced RA (AIA) model in rats", "assay_type": "in vivo, Male Lewis rats", "design": "% Inhibition of swelling in each time interval relative to negative control: concentration or dose not given beside the values", "conditions": "for Mean right hind paw volume (ml water displaced): CFA treated paw, acute phase; for Mean left hind paw volume (ml water displaced): CFA untreated paw, delayed phase", "description": "The ability of compounds of formula I to treat adjuvant-induced rheumatoid arthritis in rats was examined. The AIA model is one thought mainly to involve T cell-mediated mechanisms.\nMale Lewis rats weighing 200±10 g were housed in groups of 6 with free access to food and water. 0.1 ml CFA (Mycobacterium tuberculosis 3 mg/ml) was injected into the subplantar region of the right bind paw of each rat on day 1 of the study.\nTest substances were first dissolved in NaOH (if required) as explained above then suspended in 2% Tween 80 to a range of concentrations. 10 ml/kg was administered by oral gavage for 21 consecutive days, beginning (on day 1) 1 hour before injection of CFA. 2% Tween 80 was used as a negative control and methotrexate in 2% Tween 80 as a positive control.\nRight hind paw volumes were measured by water displacement on day 0, 4 hours after the CFA injection on day 1, and on days 7, 14, and 21. Left hind paw volumes were measured by water displacement on days 0, 1, 7, 14, and 21. […] 30% or more reduction in paw volume relative to the negative control was considered significant anti-inflammatory activity. Body weight was also recorded on days 1, 7, 14, and 21. Symptoms of swelling in the front paws, tail, nose and ears were recorded on day 21."}, "[2]": {"tested_on": "collagen-induced rheumatoid arthritis in mice"}, "[3]": {"conditions": "in vivo; cited from earlier work"}, "[4]": {"tested_on": "rheumatoid arthritis", "conditions": "RA patients; cited from earlier work"}}}
{"smiles": "CN(Cc1cnc2nc(N)nc(N)c2n1)c1ccc(C(=O)N[C@@H](CCC(=O)O)C(=O)O)cc1", "note": "[MTX, methotrexate]", "values": [{"measurement": "Mean right hind paw volume (ml water displaced)", "setting": "[1]; day 0, oral gavage", "result": 1.06, "unit": "mL"}, {"measurement": "Mean right hind paw volume (ml water displaced)", "setting": "[1]; day 1 (4 hours after CFA), oral gavage", "result": 1.56, "unit": "mL"}, {"measurement": "Mean right hind paw volume (ml water displaced)", "setting": "[1]; day 7, oral gavage", "result": 1.79, "unit": "mL"}, {"measurement": "Mean right hind paw volume (ml water displaced)", "setting": "[1]; day 14, oral gavage", "result": 1.48, "unit": "mL"}, {"measurement": "Mean right hind paw volume (ml water displaced)", "setting": "[1]; day 21, oral gavage", "result": 1.37, "unit": "mL"}, {"measurement": "Mean left hind paw volume (ml water displaced)", "setting": "[1]; day 0, oral gavage", "result": 1.06, "unit": "mL"}, {"measurement": "Mean left hind paw volume (ml water displaced)", "setting": "[1]; day 1, oral gavage", "result": 1.06, "unit": "mL"}, {"measurement": "Mean left hind paw volume (ml water displaced)", "setting": "[1]; day 7, oral gavage", "result": 1.08, "unit": "mL"}, {"measurement": "Mean left hind paw volume (ml water displaced)", "setting": "[1]; day 14, oral gavage", "result": 1.10, "unit": "mL"}, {"measurement": "Mean left hind paw volume (ml water displaced)", "setting": "[1]; day 21, oral gavage", "result": 1.14, "unit": "mL"}, {"measurement": "% Inhibition of swelling in each time interval relative to negative control", "setting": "[1]; left hind paw (CFA untreated), days 0-14", "result": 95, "unit": "%"}, {"measurement": "% Inhibition of swelling in each time interval relative to negative control", "setting": "[1]; left hind paw (CFA untreated), days 0-21", "result": 94, "unit": "%"}, {"measurement": "% Inhibition of swelling in each time interval relative to negative control", "setting": "[1]; right hind paw (CFA treated), days 0-1", "result": 15, "unit": "%"}, {"measurement": "% Inhibition of swelling in each time interval relative to negative control", "setting": "[1]; right hind paw (CFA treated), days 0-7", "result": 34, "unit": "%"}, {"measurement": "% Inhibition of swelling in each time interval relative to negative control", "setting": "[1]; right hind paw (CFA treated), days 0-14", "result": 73, "unit": "%"}, {"measurement": "% Inhibition of swelling in each time interval relative to negative control", "setting": "[1]; right hind paw (CFA treated), days 0-21", "result": 83, "unit": "%"}, {"measurement": "therapeutic dose as percentage of maximum tolerated dose", "setting": "[2]; mice, intraperitoneal, once daily for 6 weeks", "result": "twice as high"}, {"measurement": "signs of anaemia at the end of the study (red blood cell count, FIG. 3)", "setting": "[2]; mouse, in vivo", "result": "severe signs of anaemia"}, {"measurement": "fraction undergoing fast elimination unchanged after uptake", "setting": "[3]", "result": "more than 80%"}, {"measurement": "patients who do not respond sufficiently well to treatment with methotrexate alone", "setting": "[4]", "result": "around 35%"}]}
